Data taken from patent publication US20250092065A1, “2-(INDAZOL-5-YL)-6-(PIPERIDIN-4-YL)-1,7-NAPHTHYRIDINE DERIVATIVES AND RELATED COMPOUNDS AS MODULATORS FOR SPLICING NUCLEIC ACIDS AND FOR THE TREATMENT OF PROLIFERATIVE DISEASES” (REMIX THERAPEUTICS INC., priority 2022, published 2025).
Where a name gives a salt, the structure may show the parent alone.

How the values were obtained:
Format in all cases: cell-based, human
Settings in all cases: HiBiT knock-in K562 cells, 24 hours, top dose 10 μM
[1] = test system: MYB; assay: HiBiT protein abundance assay, MYB (K562 HiBiT knock-in)
Method in brief: (§1)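 K562 HiBiT knock-in, 24 h, 37 °C, top 10 μM final, 3-fold ×10, DMSO ≤0.25%. Lytic HiBiT luminescence; PC = parental K562, NC = DMSO; 4PL IC50.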

[2] = test system: HTT; assay: HiBiT protein abundance assay, HTT (K562 HiBiT knock-in)
Method in brief: as §1

[3] = test system: Target C; assay: HiBiT protein abundance assay, Target C (K562 HiBiT knock-in)
Method in brief: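 K562 HiBiT knock-in cells (10000/well) were treated 24 h at 37° C with a 10-point 3-fold dilution series (top 10 μM final, ≤0.25% DMSO). HiBiT luminescence was read after lytic LgBiT detection. Percent response used unmodified K562 and DMSO-treated knock-in controls, and IC50 came from a four-parameter fit at 50% of untreated.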

SMILES | IC50 [1] [nM] | IC50 [2] [nM] | IC50 [3] [nM]
Cc1nc2cc(O)c(-c3ccc4nc(N5CCNCC5)ccc4n3)cc2o1 [Compound 408, 2-methyl-6-[6-(piperazin-1-yl)-1,5-naphthyridin-2-yl]-1,3-benzoxazol-5-ol] | 100 to 1000 | 100 to 1000 | 100 to 1000
Cc1nc2cc(O)c(-c3ccc4nc(N5CCN[C@@H](C)C5)ccc4n3)cc2o1 [Compound 409] | 100 to 1000 | 100 to 1000 | 100 to 1000
Cc1nc2cc(O)c(-c3ccc4nc(N5CCN6CCCC6C5)ccc4n3)cc2o1 (stereo not drawn) [Compound 410] | 100 to 1000 | 100 to 1000 | 100 to 1000
Cc1nc2cc(O)c(-c3ccc4nc(N5CCNC6(CC6)C5)ccc4n3)cc2o1 [Compound 411] | 100 to 1000 | 1000 to 10000 | 1000 to 10000
Cc1nc2cc(O)c(-c3ccc4nc(N5CCC(NC(C)(C)C)CC5)ccc4n3)cc2o1 [Compound 412] | 100 to 1000 | 100 to 1000 | 100 to 1000
Cc1nc2cc(O)c(-c3ccc4nc(N5CC[C@@H](NC(C)(C)C)C5)ncc4n3)cc2o1 [Compound 413, 6-{2-[(3R)-3-(tert-butylamino)pyrrolidin-1-yl]pyrido[3,2-d]pyrimidin-6-yl}-2-methyl-1,3-benzoxazol-5-ol] | < 100 | < 100 | < 100
Cc1nc2cc(O)c(-c3ccc4nc(N5CC[C@H](NC(C)(C)C)C5)ncc4n3)cc2o1 [Compound 414, 6-{2-[(3S)-3-(tert-butylamino)pyrrolidin-1-yl]pyrido[3,2-d]pyrimidin-6-yl}-2-methyl-1,3-benzoxazol-5-ol] | 1000 to 10000 | 100 to 1000 | 100 to 1000
Cc1nc2c(C)c(O)c(-c3ccc4nc(N5CC[C@H](NC(C)C)C5)ncc4n3)cc2o1 [Compound 416, 6-{2-[(3S)-3-(isopropylamino)pyrrolidin-1-yl]pyrido[3,2-d]pyrimidin-6-yl}-2,4-dimethyl-1,3-benzoxazol-5-ol] | < 100 | < 100 | < 100
Cc1nc2cc(O)c(-c3ccc4cc(N5CC[C@@H](NC(C)(C)C)C5)ncc4n3)cc2o1 [Compound 417] | < 100 | 100 to 1000 | 1000 to 10000
Cc1nc2cc(O)c(-c3ccc4nc(N5CCN[C@@H](C6CC6)C5)ccc4n3)cc2o1 [Compound 418] | 100 to 1000 | 100 to 1000 | 100 to 1000
Cc1nc2cc(O)c(-c3ccc4nc(N5C[C@@H](C)N[C@@H](C6CC6)C5)ccc4n3)cc2o1 [Compound 419] | 100 to 1000 | 100 to 1000 | 100 to 1000
Cc1nc2cc(O)c(-c3ccc4nc(N5C[C@@H](C)N[C@@H](C)C5)ccc4n3)cc2o1 [Compound 420] | 100 to 1000 | 100 to 1000 | 100 to 1000
Cc1nc2cc(O)c(-c3ccc4nc(N5CCN[C@H](C6CC6)C5)ccc4n3)cc2o1 [Compound 421] | 100 to 1000 | 100 to 1000 | 100 to 1000
Cc1nc2cc(O)c(-c3ccc4nc(N5CCN[C@@H](C(C)C)C5)ccc4n3)cc2o1 [Compound 422] | 100 to 1000 | 100 to 1000 | 100 to 1000
Cc1nc2cc(O)c(-c3ccc4nc(N5CCC(N)CC5)ccc4n3)cc2o1 [Compound 424] | 1000 to 10000 | 1000 to 10000 | 100 to 1000
CNC1CCN(c2ccc3nc(-c4cc5oc(C)nc5cc4O)ccc3n2)CC1 [Compound 425] | 1000 to 10000 | 1000 to 10000 | 1000 to 10000
Cc1nc2c(C)c(O)c(-c3ccc4nc(N5CC[C@H](NC6CC6)C5)ncc4n3)cc2o1 [Compound 433, 6-{2-[(3S)-3-(cyclopropylamino)pyrrolidin-1-yl]pyrido[3,2-d]pyrimidin-6-yl}-2,4-dimethyl-1,3-benzoxazol-5-ol] | 100 to 1000 | < 100 | < 100
Cc1nc2cc(O)c(-c3ccc4nc(N5CC[C@H](NC6CC6)C5)ncc4n3)cc2o1 [Compound 435, 6-{2-[(3S)-3-(cyclopropylamino)pyrrolidin-1-yl]pyrido[3,2-d]pyrimidin-6-yl}-2-methyl-1,3-benzoxazol-5-ol] | 100 to 1000 | 100 to 1000 | 100 to 1000
Cc1nc2c(C)c(O)c(-c3ccc4nc(N5CC[C@@H](NC(C)(C)C)C5)ncc4n3)cc2o1 [Compound 436] | < 100 | < 100 | < 100
Cc1nc2c(C)c(O)c(-c3ccc4nc(N5CC[C@H](NC(C)(C)C)C5)ncc4n3)cc2o1 [Compound 437] | 100 to 1000 | < 100 | < 100
Cc1c(O)c(-c2ccc3nc(N4CC[C@@H](NC5CC5)C4)ncc3n2)cc2cn(C)nc12 [Compound 438, 5-{2-[(3R)-3-(cyclopropylamino)pyrrolidin-1-yl]pyrido[3,2-d]pyrimidin-6-yl}-2,7-dimethylindazol-6-ol] | 100 to 1000 | < 100 | < 100
Cc1c(O)c(-c2ccc3nc(N4CC[C@H](NC5CC5)C4)ncc3n2)cc2cn(C)nc12 [Compound 439, 5-{2-[(3S)-3-(cyclopropylamino)pyrrolidin-1-yl]pyrido[3,2-d]pyrimidin-6-yl}-2,7-dimethylindazol-6-ol] | 100 to 1000 | < 100 | < 100
Cc1nc2c(C)c(O)c(-c3ccc4cc(N5CC[C@@H](NC6CC6)C5)ncc4n3)cc2o1 [Compound 440, 6-{6-[(3R)-3-(cyclopropylamino)pyrrolidin-1-yl]-1,7-naphthyridin-2-yl}-2,4-dimethyl-1,3-benzoxazol-5-ol] | 100 to 1000 | < 100 | < 100
Cc1nc2c(C)c(O)c(-c3ccc4cc(N5CC[C@H](NC6CC6)C5)ncc4n3)cc2o1 [Compound 441, 6-{6-[(3S)-3-(cyclopropylamino)pyrrolidin-1-yl]-1,7-naphthyridin-2-yl}-2,4-dimethyl-1,3-benzoxazol-5-ol] | 1000 to 10000 | 100 to 1000 | 100 to 1000
Cn1cc2cc(-c3ccc4nc(C5CCNC6(CC6)C5)ncc4n3)c(O)cc2n1 (stereo not drawn) [Compound 448, 5-(2-{4-azaspiro[2.5]octan-7-yl}pyrido[3,2-d]pyrimidin-6-yl)-2-methylindazol-6-ol] | 100 to 1000 | 100 to 1000 | 100 to 1000
Cn1cc2cc(-c3ccc4cc(N5CCC(NC(C)(C)C)C5)ncc4n3)c(O)cc2n1 (stereo not drawn) [Compound 449, 5-{6-[3-(tert-butylamino)pyrrolidin-1-yl]-1,7-naphthyridin-2-yl}-2-methylindazol-6-ol] | 100 to 1000 | 100 to 1000 | 100 to 1000
Cc1nc2cc(O)c(-c3ccc4cc(N5CC[C@H](NC(C)(C)C)C5)ncc4n3)cc2o1 [Compound 450] | 1000 to 10000 | 1000 to 10000 | 1000 to 10000
Cc1c(O)c(-c2cc(Cl)c3cc(N4CCNCC4)cc(C)c3n2)cc2cn(C)nc12 [Compound 482, 5-[4-chloro-8-methyl-6-(piperazin-1-yl)577yrrolidi-2-yl]-2,7-dimethylindazol-6-ol hydrochloride] | < 100 | 100 to 1000 | 100 to 1000
Cc1cc2nc(-c3cc4cn(C)nc4c(C)c3O)cc(Cl)c2cc1N1CCNCC1 [Compound 484, 5-[4-chloro-7-methyl-6-(piperazin-1-yl)586yrrolidi-2-yl]-2,7-dimethylindazol-6-ol] | 100 to 1000 | 1000 to 10000 | 1000 to 10000
CNC1CCN(c2cc3c(Cl)cc(-c4cc5cn(C)nc5c(C)c4O)nc3cc2C)C1 (stereo not drawn) [Compound 486, 5-{4-chloro-7-methyl-6-[3-(methylamino)pyrrolidin-1-yl]quinolin-2-yl}-2,7-dimethylindazol-6-ol] | 100 to 1000 | 1000 to 10000 | 1000 to 10000
